Experimental data published in US5225571A, “Substituted dihydroxy-bis-[5-hydroxy-2(5H)-furanone-4-yl]-alkanes as anti-inflammatory agents” (Allergan, Inc., priority 1991, dated 1993).
Like-named read-outs stand apart in the source and are kept apart here.

Molecular target: bee venom phospholipase A2 (Apis mellifera, UniProt P00630)
Assay: biochemical
Assay type: biochemical
Conditions: read-out: 50% inhibition (IC50) of bee venom phospholipase A2

Chain of bee venom phospholipase A2 (P00630 34-167 limits assumed): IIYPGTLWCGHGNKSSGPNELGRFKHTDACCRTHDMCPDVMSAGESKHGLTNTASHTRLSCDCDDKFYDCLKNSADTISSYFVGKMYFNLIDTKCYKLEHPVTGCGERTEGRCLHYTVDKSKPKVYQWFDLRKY

Row | Compound | IC50 (pH 7.4) [nM] | IC50 [nM]
1 | O=C1C=C(C(CCCCCCCCCCC(OC(=O)Nc2ccccc2)C2=CC(=O)OC2O)OC(=O)Nc2ccccc2)C(O)O1 (stereo not shown) [Compound 2, 1,12-Di(N-phenylcarbamoyl)-1,12-bis[5-hydroxy-2(5H)-furano-4-yl] dodecane] | 30 | 
2 | CC(=O)OC(CCCCCCCCCCCCC(OC(C)=O)C1=CC(=O)OC1O)C1=CC(=O)OC1O (stereo not shown) [Compound 1, 1,14-Diacetoxy-1,14-bis[5-hydroxy-2(5H)-4-furanoyl]tetradecane] | 10 | 
3 | CC(C)(C)C(=O)OC(CCCCCCCCCCCCC(OC(=O)C(C)(C)C)C1=CC(=O)OC1OC(=O)Nc1ccccc1)C1=CC(=O)OC1OC(=O)Nc1ccccc1 (stereo not shown) [Compound 4, 1,14-Di-(tert-butanoyloxy)-1,14-bis[5-(N-phenylcarbamoyl)-2(5H)-furano-4-yl]-tetradecane] |  | > 1000
4 | CC(C)(C)C(=O)OC(CCCCCCCCCCCCC(OC(=O)C(C)(C)C)C1=CC(=O)OC1O)C1=CC(=O)OC1O (stereo not shown) [Compound 3, 1,14-Di(tert-butanoyloxy)-1,14-bis[5-hydroxy-2(5H)-furano-4-yl]tetradecane] | 20 | 
